One assay deals with NF-κB. The experiment in a line: NF-κB assay: THP1-NF-κB-LUC cells, LPS-stimulated secreted luciferase. In kind it is cell-based. To be noted: THP1-NF-κB-LUC cells; compounds 2 hours before LPS (10 ng/mL) for 18 hours; secreted luciferase; read-out: IC50 (NF-κB assay). The method, boiled down:
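THP1-NF-κB-LUC cells (25k/well) were pretreated with compounds for 2 h, then stimulated with LPS (10 ng/mL) for 18 h. Secreted luciferase was measured and normalized to vehicle, and IC50 was fitted from the concentration series.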

Another assay has as its system TNF release. The experiment in a line: TNF assay: TNF release from LPS-stimulated human PBMCs (TNF ELISA). The note with it: human PBMCs, compounds 2 hours before LPS (10 ng/ml) for 18 hours, supernatant TNF ELISA, read-out: IC50 (TNF assay). In kind it is cell-based. Summed up:
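Human PBMCs at 10k/well pretreated with compound dilutions 2 h, then stimulated with LPS (10 ng/mL) for 18 h. TNF in supernatants quantified by ELISA; IC50 for inhibition of TNF release fitted from concentration–response.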

Each structure is given as a SMILES string. Like-named read-outs stand apart in the source and are kept apart here.

In the case of `CC(C)CC1Oc2c(cc(Br)cc2S(=O)(=O)Nc2ccc(OC(F)(F)F)cc2)NC1=O` (stereo not shown) [BC19757], the IC50 was under 100 nM with NF-κB and over 10000 nM in the assay on TNF release (PBMC).
Turning to `CC(C)CC1Oc2cc(S(=O)(=O)Nc3ccc(OC(F)(F)F)cc3)c(Br)cc2NC1=O` (stereo not shown) [BC19758], the IC50 in the assay with NF-κB was 100 to 1000 nM; in the assay with TNF release (PBMC) it was over 10000 nM.
The like results for `CC(C)CC1Oc2c(cc(Br)cc2S(=O)(=O)Nc2ccc(F)c(F)c2)NC1=O` (stereo not shown) [BC19759] were, in that order, under 100 nM and over 10000 nM.
With `CC(C)CC1Oc2cc(S(=O)(=O)Nc3ccc(F)c(F)c3)c(Br)cc2NC1=O` (stereo not shown) [BC19760], the IC50 in the assay on NF-κB was under 100 nM; in the assay with TNF release (PBMC), over 10000 nM.
For `CC(C)CC1Oc2c(cc(Br)cc2S(=O)(=O)Nc2ccccc2)NC1=O` (stereo not shown) [BC19761], in that order: 100 to 1000 nM and over 10000 nM.
For `CC(C)CC1Oc2cc(S(=O)(=O)Nc3ccccc3)c(Br)cc2NC1=O` (stereo not shown) [BC19762], in that order: 100 to 1000 nM and over 10000 nM.
For `CCc1ccc(NS(=O)(=O)c2cc(Br)cc3c2OC(CC(C)C)C(=O)N3)cc1` (stereo not shown) [BC19763], in that order: 100 to 1000 nM and 1000 to 10000 nM.
Take `CCc1ccc(NS(=O)(=O)c2cc3c(cc2Br)NC(=O)C(CC(C)C)O3)cc1` (stereo not shown) [BC19764]: the IC50 in the assay with NF-κB was 1000 to 10000 nM; in the assay with TNF release (PBMC), over 10000 nM.
Consider `CC(C)CC1Oc2c(cc(Br)cc2S(=O)(=O)Nc2ccc(C(C)C)cc2)NC1=O` (stereo not shown) [BC19765], for which the half-maximal inhibitory concentration (IC50) with NF-κB is under 100 nM; with TNF release (PBMC) it was over 10000 nM.
The like results for `CC(C)CC1Oc2cc(S(=O)(=O)Nc3ccc(C(C)C)cc3)c(Br)cc2NC1=O` (stereo not shown) [BC19766] were, in that order, 1000 to 10000 nM and 1000 to 10000 nM.
For `Cc1ccc(NS(=O)(=O)c2cc(Br)cc3c2OC(CC(C)C)C(=O)N3)cc1Cl` (stereo not shown) [BC19767], in that order: under 100 nM and over 10000 nM.
As for `Cc1ccc(NS(=O)(=O)c2cc3c(cc2Br)NC(=O)C(CC(C)C)O3)cc1Cl` (stereo not shown) [BC19768], the values for the IC50 in the assay with NF-κB and in the assay with TNF release (PBMC) were 1000 to 10000 nM and over 10000 nM, respectively.
The like results for `CC(C)CC1Oc2c(cc(Br)cc2S(=O)(=O)Nc2ccc(F)cc2F)NC1=O` (stereo not shown) [BC19769] were, in that order, under 100 nM and over 10000 nM.
Regarding `CC(C)CC1Oc2cc(S(=O)(=O)Nc3ccc(F)cc3F)c(Br)cc2NC1=O` (stereo not shown) [BC19770], the IC50 in the assay on NF-κB was 100 to 1000 nM; in the assay with TNF release (PBMC), over 10000 nM.
For `CCc1cccc(NS(=O)(=O)c2cc(Br)cc3c2OC(CC(C)C)C(=O)N3)c1` (stereo not shown) [BC19771], the results for the IC50 in the assay on NF-κB and in the assay with TNF release (PBMC) were under 100 nM and over 10000 nM, respectively.
For `CCc1cccc(NS(=O)(=O)c2cc3c(cc2Br)NC(=O)C(CC(C)C)O3)c1` (stereo not shown) [BC19772], in that order: 100 to 1000 nM and over 10000 nM.
`CC(C)CC1Oc2c(cc(Br)cc2S(=O)(=O)Nc2cccc(F)c2)NC1=O` (stereo not shown) [BC19773]: the IC50 in the assay with NF-κB is under 100 nM; with TNF release (PBMC), over 10000 nM.
Turning to `CC(C)CC1Oc2cc(S(=O)(=O)Nc3cccc(F)c3)c(Br)cc2NC1=O` (stereo not shown) [BC19774], the IC50 with NF-κB is 100 to 1000 nM; with TNF release (PBMC), over 10000 nM.
For `CC(C)CC1Oc2c(cc(Br)cc2S(=O)(=O)Nc2cccc(Cl)c2)NC1=O` (stereo not shown) [BC19775], in that order: under 100 nM and over 10000 nM.
For `CC(C)CC1Oc2cc(S(=O)(=O)Nc3cccc(Cl)c3)c(Br)cc2NC1=O` (stereo not shown) [BC19776], in that order: 100 to 1000 nM and over 10000 nM.
For `CC(C)CC1Oc2c(cc(Br)cc2S(=O)(=O)Nc2ccc(F)cc2Cl)NC1=O` (stereo not shown) [BC19777], in that order: under 100 nM and over 10000 nM.
On to `CC(C)CC1Oc2cc(S(=O)(=O)Nc3ccc(F)cc3Cl)c(Br)cc2NC1=O` (stereo not shown) [BC19778], for which the IC50 in the assay with NF-κB and with TNF release (PBMC) was over 10000 nM each time.
Turning to `COc1ccc(NS(=O)(=O)c2cc(Br)cc3c2OC(CC(C)C)C(=O)N3)cc1Cl` (stereo not shown) [BC19779], the IC50 with NF-κB was 100 to 1000 nM; in the assay with TNF release (PBMC) it was 1000 to 10000 nM.
For `COc1ccc(NS(=O)(=O)c2cc3c(cc2Br)NC(=O)C(CC(C)C)O3)cc1Cl` (stereo not shown) [BC19780], in that order: 1000 to 10000 nM and over 10000 nM.
The like results for `CC(C)CC1Oc2c(cc(Br)cc2S(=O)(=O)Nc2ccc(F)cc2)NC1=O` (stereo not shown) [BC19781] were, in that order, under 100 nM and 1000 to 10000 nM.
For `CC(C)CC1Oc2cc(S(=O)(=O)Nc3ccc(F)cc3)c(Br)cc2NC1=O` (stereo not shown) [BC19782], in that order: 1000 to 10000 nM and over 10000 nM.
In the case of `CC1Oc2c(cc(Br)cc2S(=O)(=O)Nc2ccc(OC(F)(F)F)cc2)N(C)C1=O` (stereo not shown) [BC19783], the IC50 with NF-κB was under 100 nM; in the assay with TNF release (PBMC) it was over 10000 nM.
For `CC1Oc2cc(S(=O)(=O)Nc3ccc(OC(F)(F)F)cc3)c(Br)cc2N(C)C1=O` (stereo not shown) [BC19784], in that order: 1000 to 10000 nM and over 10000 nM.
The like results for `Cc1ccc(NS(=O)(=O)c2cc(Br)cc3c2OC(C)C(=O)N3C)cc1F` (stereo not shown) [BC19785] were, in that order, under 100 nM and over 10000 nM.
`CC1Oc2cc(S(=O)(=O)Nc3ccc(F)c(F)c3)c(Br)cc2N(C)C1=O` (stereo not shown) [BC19786]: the IC50 in the assay on NF-κB is 1000 to 10000 nM; with TNF release (PBMC), over 10000 nM.
The like results for `CC1Oc2c(cc(Br)cc2S(=O)(=O)Nc2ccc(F)c(F)c2)N(C)C1=O` (stereo not shown) [BC19787] were, in that order, under 100 nM and over 10000 nM.
On to `CC1Oc2cc(S(=O)(=O)Nc3ccc(F)c(F)c3)c(Br)cc2N(C)C1=O` (stereo not shown) [BC19788], for which the IC50 in the assay with NF-κB was under 100 nM; in the assay with TNF release, over 10000 nM.
For `CC1Oc2c(cc(Br)cc2S(=O)(=O)Nc2ccccc2)N(C)C1=O` (stereo not shown) [BC19789], the figures for the IC50 in the assay with NF-κB and in the assay with TNF release (PBMC) were under 100 nM and 1000 to 10000 nM, respectively.
Take `CC1Oc2cc(S(=O)(=O)Nc3ccccc3)c(Br)cc2N(C)C1=O` (stereo not shown) [BC19790]: the IC50 is 1000 to 10000 nM in the assay with NF-κB and over 10000 nM with TNF release (PBMC).
As for `CC1Oc2c(cc(Br)cc2S(=O)(=O)Nc2ccc(Cl)cc2)N(C)C1=O` (stereo not shown) [BC19791], the values for the IC50 in the assay on NF-κB and with TNF release (PBMC) were under 100 nM and over 10000 nM, respectively.
The like results for `CC1Oc2cc(S(=O)(=O)Nc3ccc(Cl)cc3)c(Br)cc2N(C)C1=O` (stereo not shown) [BC19792] were, in that order, 1000 to 10000 nM and over 10000 nM.
The like results for `CC1Oc2c(cc(Br)cc2S(=O)(=O)Nc2ccc(C(C)C)cc2)N(C)C1=O` (stereo not shown) [BC19793] were, in that order, under 100 nM and over 10000 nM.
The like results for `CC1Oc2cc(S(=O)(=O)Nc3ccc(C(C)C)cc3)c(Br)cc2N(C)C1=O` (stereo not shown) [BC19794] were, in that order, 1000 to 10000 nM and over 10000 nM.
`COc1ccc(NS(=O)(=O)c2cc3c(cc2Br)N(C)C(=O)C(C)O3)cc1` (stereo not shown) [BC19795]: the IC50 is over 10000 nM with NF-κB and 1000 to 10000 nM with TNF release (PBMC).
Consider `Cc1ccc(NS(=O)(=O)c2cc(Br)cc3c2OC(C)C(=O)N3C)cc1Cl` (stereo not shown) [BC19796], for which the half-inhibitory concentration (IC50) in the assay with NF-κB was under 100 nM; in the assay on TNF release (PBMC) it was 1000 to 10000 nM.
For `Cc1ccc(NS(=O)(=O)c2cc3c(cc2Br)N(C)C(=O)C(C)O3)cc1Cl` (stereo not shown) [BC19797], in that order: 1000 to 10000 nM and 1000 to 10000 nM.
Regarding `CC1Oc2c(cc(Br)cc2S(=O)(=O)Nc2ccc(F)cc2F)N(C)C1=O` (stereo not shown) [BC19798], the results for the IC50 with NF-κB and with TNF release (PBMC) were under 100 nM and 1000 to 10000 nM, respectively.
On to `CC1Oc2cc(S(=O)(=O)Nc3ccc(F)cc3F)c(Br)cc2N(C)C1=O` (stereo not shown) [BC19799], for which the IC50 lay within 100 to 1000 nM in the assay with NF-κB and 1000 to 10000 nM in the assay on TNF release (PBMC).
For `CCc1cccc(NS(=O)(=O)c2cc(Br)cc3c2OC(C)C(=O)N3C)c1` (stereo not shown) [BC19900], in that order: 100 to 1000 nM and over 10000 nM.

Values taken from patent US12606528B2, “Methods and materials for inhibiting NF-kB activity” (University of Pittsburgh - Of the Commonwealth System of …, priority 2019, dated 2026).
